Consider three molecules from patent US11655256B1, “Processes for making a solid-state form of relugolix” (Johnson Matthey Public Limited Company, priority 2020, dated 2023).

Holding throughout (type): physicochemical
Series [1] can be described thus: Stability under high humidity at ambient temperatures. As to conditions: about 97% humidity, over a month.
Series [2] in a line: Dynamic vapor sorption (DVS). The procedure:
DVS samples are analyzed using a TA Instruments Q5000SA gravimetric water sorption analyzer. The relative humidity is adjusted between about 0-95% and the weight of the sample is continuously monitored and recorded with respect to the relative humidity and time.

A short description of series [3]: Stability on prolonged drying under vacuum. As to conditions: about 2 days under vacuum at about 70° C. How it is done:
Form A of the DMF solvate of relugolix is stable, i.e., it is unchanged after prolonged drying (e.g., about 2 days) under vacuum at about 70° C.

As to `CONC(=O)Nc1ccc(-c2sc3c(c2CN(C)C)c(=O)n(-c2ccc(OC)nn2)c(=O)n3Cc2c(F)cccc2F)cc1` [Form A of the DMF solvate of relugolix, 1-[4-[1-[(2,6-difluorophenyl)-methyl]-5-[(dimethylamino)methyl]-3-(6-methoxypyridazin-3-yl)-2,4-dioxothieno-[2,3-d]pyrimidin-6-yl]phenyl]-3-methoxyurea], in series [1], the stability under humidity entry is given as “remains unchanged”. The “DVS loss of mass” value in series [2] (at about 90% RH) is recorded as “about 1%”. Also, the “stability after prolonged drying” value in series [3] is reported as “unchanged”.

For the molecule `CONC(=O)Nc1ccc(-c2sc3c(c2CN(C)C)c(=O)n(-c2ccc(OC)nn2)c(=O)n3Cc2c(F)cccc2F)cc1` [Form T of anhydrous relugolix, 1-[4-[1-[(2,6-difluorophenyl)-methyl]-5-[(dimethylamino)methyl]-3-(6-methoxypyridazin-3-yl)-2,4-dioxothieno-[2,3-d]pyrimidin-6-yl]phenyl]-3-methoxyurea], the “DVS weight % change” value in series [2] (relative humidity (RH) levels between 0 to 90%) is reported as “about 6%”.

As to `CONC(=O)Nc1ccc(-c2sc3c(c2CN(C)C)c(=O)n(-c2ccc(OC)nn2)c(=O)n3Cc2c(F)cccc2F)cc1` [Form B of anhydrous relugolix, 1-[4-[1-[(2,6-difluorophenyl)-methyl]-5-[(dimethylamino)methyl]-3-(6-methoxypyridazin-3-yl)-2,4-dioxothieno-[2,3-d]pyrimidin-6-yl]phenyl]-3-methoxyurea], the “stability at various humidity levels” value in series [2] (evidenced by XRPD after DVS) is reported as “remains stable”. Moreover, in series [2] (relative humidity levels between about 0 to about 95%), the DVS weight loss result is given as “about 7%”.
